Measured values reported in patent US10253039B2, “Inhibitors of bacterial DNA gyrase with efficacy against gram-negative bacteria” (priority 2014, dated 2019).
In brackets after ≈: the same amount, converted by molar mass. Where two headings read alike, the source gives them in different places.

Key:
Shigella flexneri = assay: MIC, 20-strain panel; assay type: cell-based
Outline: (§1)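 First, a 1:10000 inoculum of each strain was made in Luria-Bertani medium from a growing subculture. Next, the compound was added and diluted 2-fold down the plate in three replicate columns, with DMSO in a fourth. Finally, plates were shaken at 37° C. for 16-18 hours and scored visually.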

[1] = test system: Staphylococcus saprophyticus subsp. saprophyticus; assay: MIC, 20-strain panel; assay type: cell-based
Outline: as §1

[2] = test system: Staphylococcus epidermidis; assay: MIC, 20-strain panel; assay type: cell-based
Outline: as §1

E. coli JW5503 (deltolC) = assay: MIC, 20-strain panel; assay type: cell-based; conditions: Escherichia coli
Outline: as §1

[3] = test system: Klebsiella pneumoniae subsp. pneumoniae; assay: MIC, 20-strain panel; assay type: cell-based
Outline: as §1

Streptococcus pyogenes = assay: MIC, 20-strain panel; assay type: cell-based
Outline: as §1

[4] = test system: Salmonella enterica subsp. enterica typhimurium; assay: MIC, 20-strain panel; assay type: cell-based
Outline: as §1

Streptococcus agalactiae = assay: MIC, 20-strain panel; assay type: cell-based
Outline: as §1

E. coli MG1655 = assay: MIC, 20-strain panel; assay type: cell-based; conditions: Escherichia coli, read-out: MIC
Outline: as §1

[5] = test system: Staphylococcus aureus subsp. aureus; assay: MIC, 20-strain panel; assay type: cell-based; conditions: read-out: MIC
Outline: as §1

Edwardsiella tarda = assay: MIC, microdilution in 96-well plates; assay type: cell-based
Outline: as §1

E. coli BW25113 = assay: MIC, microdilution in 96-well plates; assay type: cell-based; conditions: Escherichia coli, read-out: MIC
Outline: as §1

[6] = test system: E. coli BW25113 ΔtolC gyrR isolate GyrB Thr508Met; assay: MIC against gyramide-resistant mutant; conditions: gyrR isolate GyrB Thr508Met
Protocol: (§2) A microdilution method in 96-well plates was used and the MIC protocol established by the Clinical Laboratory Standards Institute was followed. From a growing subculture, a 1:10000 inoculum of each strain in Luria-Bertani media was prepared and aliquoted 100 μL in 4 columns of wells, except for the top row wells, which contained 200 μL of inoculum. […] The liquid in each of wells was mixed with a multi-channel pipet and 100 μL was transferred to the next well and mixed. The 2-fold dilution was continued down the 96-well plate until 100 μL was left, which was discarded. The plates were incubated at 37° C. with shaking for 16-18 hours. The MIC was determined as the lowest concentration that inhibited growth and had no turbidity by visual inspection.

E. coli BW25113 ΔtolC = assay: MIC, microdilution in 96-well plates; conditions: E. coli BW25113 ΔtolC (parent strain); Table 4
[7] = test system: E. coli BW25113 ΔtolC gyrR isolate GyrA Ser97Pro; assay: MIC against gyramide-resistant mutant; conditions: gyrR isolate GyrA Ser97Pro
Protocol: as §2

[8] = test system: E. coli BW25113 ΔtolC gyrR isolate GyrA His45Tyr; assay: MIC against gyramide-resistant mutant; conditions: gyrR isolate GyrA His45Tyr
Protocol: as §2

[9] = test system: E. coli BW25113 ΔtolC gyrR isolate GyrA Phe96Leu; assay: MIC against gyramide-resistant mutant; conditions: gyrR isolate GyrA Phe96Leu
Protocol: as §2

[10] = test system: E. coli BW25113 ΔtolC gyrR isolate GyrA Pro35Thr; assay: MIC against gyramide-resistant mutant; conditions: gyrR isolate GyrA Pro35Thr
Protocol: as §2

[11] = Klebsiella pneumoniae subsp. pneumoniae
[12] = Salmonella enterica subsp. enterica Typhimurium
[13] = Staphylococcus aureus subsp. aureus

SMILES | MIC (Shigella flexneri) | MIC [1] | MIC [2] | MIC (E. coli JW5503 (deltolC); E. coli JW5503 (deltolC)) | MIC [3, 11] | MIC (Streptococcus pyogenes) | MIC [4, 12] | MIC (Streptococcus agalactiae) | MIC (E. coli MG1655; MG1655, E. coli MG1655) | MIC [5, 13] | MIC (Edwardsiella tarda) | MIC (E. coli BW25113; BW25113, E. coli BW25113) | further results
O=S(=O)(N[C@@H]1CCN(Cc2ccc(OC3CCC3)cc2)C1)c1cccc(OC(F)(F)F)c1 [Compound 177] | > 8 µg/mL | > 8 µg/mL | > 8 µg/mL | 2 µg/mL (≈ 4.25 µM) | > 8 µg/mL | > 8 µg/mL | > 8 µg/mL | > 8 µg/mL | > 8 µg/mL | > 8 µg/mL | > 8 µg/mL | > 8 µg/mL | 
O=S(=O)(N[C@@H]1CCN(Cc2ccc(-c3ccccc3)cc2)C1)c1cnc2ccccc2c1 [Compound 178] | > 8 µg/mL | > 8 µg/mL | > 8 µg/mL | > 8 µg/mL | > 8 µg/mL | > 8 µg/mL | > 8 µg/mL | > 8 µg/mL | > 8 µg/mL | > 8 µg/mL | > 8 µg/mL | > 8 µg/mL | 
CC(C)Oc1ccc(CN2CC[C@@H](NS(=O)(=O)c3ccc4c(c3)CC(=O)N4C)C2)cc1 [Compound 179] | > 8 µg/mL | > 8 µg/mL | > 8 µg/mL | > 8 µg/mL | > 8 µg/mL | > 8 µg/mL | > 8 µg/mL | > 8 µg/mL | > 8 µg/mL | > 8 µg/mL | > 8 µg/mL | > 8 µg/mL | 
CN1C(=O)Cc2cc(S(=O)(=O)N[C@@H]3CCN(Cc4ccc(-c5ccccc5)cc4)C3)ccc21 [Compound 180] | > 8 µg/mL | > 8 µg/mL | > 8 µg/mL | > 8 µg/mL | > 8 µg/mL | > 8 µg/mL | > 8 µg/mL | > 8 µg/mL | > 8 µg/mL | > 8 µg/mL | > 8 µg/mL | > 8 µg/mL | 
CN1C(=O)Cc2cc(S(=O)(=O)N[C@@H]3CCN(Cc4ccc(OC5CC5)cc4)C3)ccc21 [Compound 181] | > 8 µg/mL | > 8 µg/mL | > 8 µg/mL | > 8 µg/mL | > 8 µg/mL | > 8 µg/mL | > 8 µg/mL | > 8 µg/mL | > 8 µg/mL | > 8 µg/mL | > 8 µg/mL | > 8 µg/mL | 
Cc1ccc(C(F)(F)F)cc1S(=O)(=O)N[C@@H]1CCN(Cc2ccc(-c3ccccc3)cc2)C1 [Compound 182] |  | > 8 µg/mL | 4 µg/mL (≈ 8.43 µM) |  |  | ~8 µg/mL (≈ 16.9 µM) |  | > 8 µg/mL |  |  |  |  | MIC (Shigella flexneri; G: Shigella flexneri): > 8 µg/mL; MIC (E. coli JW5503 (deltolC); C: E. coli JW5503 (deltolC)): 4 µg/mL (≈ 8.43 µM); MIC ([3]; E: Klebsiella pneumoniae subsp. pneumoniae): > 8 µg/mL; MIC ([4]; F: Salmonella enterica subsp. enterica Typhimurium): > 8 µg/mL; MIC (E. coli MG1655; MG1655, A: E. coli MG1655): > 8 µg/mL; MIC ([5]; H: Staphylococcus aureus subsp. aureus): > 8 µg/mL; MIC (Edwardsiella tarda; D: Edwardsiella tarda): > 8 µg/mL; MIC (E. coli BW25113; BW25113, B: E. coli BW25113): > 8 µg/mL
Cc1ccc(C(F)(F)F)cc1S(=O)(=O)N[C@@H]1CCN(Cc2ccc(OC(C)C)cc2)C1 [Compound 183] | > 8 µg/mL | > 8 µg/mL | > 8 µg/mL | 0.5 µg/mL (≈ 1.1 µM) | > 8 µg/mL | > 8 µg/mL | 8 µg/mL (≈ 17.5 µM) | > 8 µg/mL | > 8 µg/mL | > 8 µg/mL | > 8 µg/mL | > 8 µg/mL | 
Cc1ccc(F)cc1S(=O)(=O)NC1CCN(Cc2ccc(OC(C)C)cc2)C1 (stereo not drawn) [Gyramide A] |  |  |  |  |  |  |  |  |  |  |  |  | MIC [6]: 320 µM (≈ 130 µg/mL); MIC (E. coli BW25113 ΔtolC): 20 µM (≈ 8.13 µg/mL); MIC [7]: 320 µM (≈ 130 µg/mL); MIC [8]: 320 µM (≈ 130 µg/mL); MIC [9]: 320 µM (≈ 130 µg/mL); MIC [10]: 320 µM (≈ 130 µg/mL)
